# Test results taken from ChEMBL document CHEMBL1144896 (2003).
# Legend:
# [1] = test system: NCI-H1299; experiment: Compound was tested for human telomerase reverse transcriptase-SEAP (hTERT-SEAP) activity in non-small cell lung cancer H1299 cell at 22 uM concentration; type: functional
# [2] = test system: BJ; experiment: pPCMV-SEAP (cytomegalovirus-SEAP) activity in immortalized hTERT-BJ1 at 22 uM concentration and level of cell viability determined in MTT assay; type: functional, Homo sapiens
# [3] = test system: BJ; experiment: hTERT-SEAP (Human telomerase reverse transcriptase-SEAP) activity in immortalized hTERT-BJI at 22 uM concentration and level of cell viability determined in MTT assay; type: functional
# [4] = test system: BJ; experiment: Compound was tested for cytomegalovirus or (pPCMV-SEAP) activity in immortalized hTERT-BJ1 at 2.0 uM concentration; type: functional, Homo sapiens
# [5] = test system: BJ; experiment: pPCMV-SEAP (cytomegalovirus-SEAP) activity in immortalized hTERT-BJ1 at 220 uM concentration and level of cell viability determined in MTT assay; type: functional, Homo sapiens
# [6] = test system: NCI-H1299; experiment: Compound was tested for human telomerase reverse transcriptase-SEAP (hTERT-SEAP) activity in non-small cell lung cancer H1299 cell at 220.0 uM concentration; type: functional
# [7] = test system: BJ; experiment: pPCMV-SEAP (cytomegalovirus-SEAP) activity in immortalized hTERT-BJ1 at 2.0 uM concentration and level of cell viability determined in MTT assay; type: functional, Homo sapiens
# [8] = test system: BJ; experiment: hTERT-SEAP (Human telomerase reverse transcriptase-SEAP) activity in immortalized hTERT-BJI at 2.2 uM concentration and level of cell viability determined in MTT assay; type: functional
# [9] = test system: BJ; experiment: Compound was tested for human telomerase reverse transcriptase-SEAP (hTERT-SEAP) activity in immortalized hTERT-BJI at 2.2 uM concentration; type: functional
# [10] = test system: BJ; experiment: Compound was tested for human telomerase reverse transcriptase-SEAP (hTERT-SEAP) activity in immortalized hTERT-BJI at 22 uM concentration; type: functional
# [11] = test system: BJ; experiment: Compound was tested for cytomegalovirus or (pPCMV-SEAP) activity in immortalized hTERT-BJ1 at 220 uM concentration; type: functional, Homo sapiens
# [12] = test system: BJ; experiment: Compound was tested for human telomerase reverse transcriptase-SEAP (hTERT-SEAP) activity in immortalized hTERT-BJI at 220.0 uM concentration; type: functional
# [13] = test system: NCI-H1299; experiment: Compound was tested for human telomerase reverse transcriptase-SEAP (hTERT-SEAP) activity in non-small cell lung cancer H1299 cell at 2.2 uM concentration; type: functional
# [14] = test system: BJ; experiment: Compound was tested for cytomegalovirus or (pPCMV-SEAP) activity in immortalized hTERT-BJ1 at 22 uM concentration; type: functional, Homo sapiens
# [15] = test system: NCI-H1299; experiment: hTERT-SEAP (Human telomerase reverse transcriptase-SEAP) activity in non-small cell lung cancer H1299 cell at 220.0 uM concentration and level of cell viability determined in MTT assay; type: functional
# [16] = test system: BJ; experiment: hTERT-SEAP (Human telomerase reverse transcriptase-SEAP) activity in immortalized hTERT-BJI at 220.0 uM concentration and level of cell viability determined in MTT assay; type: functional
# [17] = test system: NCI-H1299; experiment: hTERT-SEAP (Human telomerase reverse transcriptase-SEAP) activity in non-small cell lung cancer H1299 cell at 2.2 uM concentration and level of cell viability determined in MTT assay; type: functional
# [18] = test system: BJ; experiment: pPCMV-SEAP (cytomegalovirus-SEAP) activity in immortalized hTERT-BJ1 at 240 uM concentration and level of cell viability determined in MTT assay; type: functional, Homo sapiens
# [19] = test system: NCI-H1299; experiment: hTERT-SEAP (Human telomerase reverse transcriptase-SEAP) activity in non-small cell lung cancer H1299 cell at 240.0 uM concentration and level of cell viability determined in MTT assay; type: functional
# [20] = test system: BJ; experiment: Compound was tested for human telomerase reverse transcriptase-SEAP (hTERT-SEAP) activity in immortalized hTERT-BJI at 2.4 uM concentration; type: functional
# [21] = test system: BJ; experiment: Compound was tested for cytomegalovirus or (pPCMV-SEAP) activity in immortalized hTERT-BJ1 at 240 uM concentration; type: functional, Homo sapiens
# [22] = test system: BJ; experiment: pPCMV-SEAP (cytomegalovirus-SEAP) activity in immortalized hTERT-BJ1 at 24 uM concentration and level of cell viability determined in MTT assay; type: functional, Homo sapiens
# [23] = test system: BJ; experiment: pPCMV-SEAP (cytomegalovirus-SEAP) activity in immortalized hTERT-BJ1 at 2.4 uM concentration and level of cell viability determined in MTT assay; type: functional, Homo sapiens
# [24] = test system: BJ; experiment: Compound was tested for human telomerase reverse transcriptase-SEAP (hTERT-SEAP) activity in immortalized hTERT-BJI at 240.0 uM concentration; type: functional
# [25] = test system: BJ; experiment: Compound was tested for human telomerase reverse transcriptase-SEAP (hTERT-SEAP) activity in immortalized hTERT-BJI at 24 uM concentration; type: functional
# [26] = test system: BJ; experiment: hTERT-SEAP (Human telomerase reverse transcriptase-SEAP) activity in immortalized hTERT-BJI at 24 uM concentration and level of cell viability determined in MTT assay; type: functional
# [27] = test system: NCI-H1299; experiment: hTERT-SEAP (Human telomerase reverse transcriptase-SEAP) activity in non-small cell lung cancer H1299 cell at 24 uM concentration and level of cell viability determined in MTT assay; type: functional
# [28] = test system: NCI-H1299; experiment: Compound was tested for human telomerase reverse transcriptase-SEAP (hTERT-SEAP) activity in non-small cell lung cancer H1299 cell at 24 uM concentration; type: functional
# [29] = test system: NCI-H1299; experiment: Compound was tested for human telomerase reverse transcriptase-SEAP (hTERT-SEAP) activity in non-small cell lung cancer H1299 cell at 2.4 uM concentration; type: functional
# [30] = test system: BJ; experiment: hTERT-SEAP (Human telomerase reverse transcriptase-SEAP) activity in immortalized hTERT-BJI at 240.0 uM concentration and level of cell viability determined in MTT assay; type: functional
# [31] = test system: NCI-H1299; experiment: Compound was tested for human telomerase reverse transcriptase-SEAP (hTERT-SEAP) activity in non-small cell lung cancer H1299 cell at 240.0 uM concentration; type: functional
# [32] = test system: BJ; experiment: Compound was tested for cytomegalovirus or (pPCMV-SEAP) activity in immortalized hTERT-BJ1 at 24 uM concentration; type: functional, Homo sapiens
# [33] = test system: NCI-H1299; experiment: hTERT-SEAP (Human telomerase reverse transcriptase-SEAP) activity in non-small cell lung cancer H1299 cell at 2.4 uM concentration and level of cell viability determined in MTT assay; type: functional
# [34] = test system: BJ; experiment: Compound was tested for cytomegalovirus or (pPCMV-SEAP) activity in immortalized hTERT-BJ1 at 2.4 uM concentration; type: functional, Homo sapiens
# [35] = test system: BJ; experiment: pPCMV-SEAP (cytomegalovirus-SEAP) activity in immortalized hTERT-BJ1 at 18 uM concentration and level of cell viability determined in MTT assay; type: functional, Homo sapiens
# [36] = test system: BJ; experiment: Compound was tested for cytomegalovirus or (pPCMV-SEAP) activity in immortalized hTERT-BJ1 at 1.8 uM concentration; type: functional, Homo sapiens
# [37] = test system: BJ; experiment: Compound was tested for cytomegalovirus or (pPCMV-SEAP) activity in immortalized hTERT-BJ1 at 18 uM concentration; type: functional, Homo sapiens
# [38] = test system: BJ; experiment: Compound was tested for human telomerase reverse transcriptase-SEAP (hTERT-SEAP) activity in immortalized hTERT-BJI at 180.0 uM concentration; type: functional
# [39] = test system: NCI-H1299; experiment: hTERT-SEAP (Human telomerase reverse transcriptase-SEAP) activity in non-small cell lung cancer H1299 cell at 18 uM concentration and level of cell viability determined in MTT assay; type: functional
# [40] = test system: NCI-H1299; experiment: Compound was tested for human telomerase reverse transcriptase-SEAP (hTERT-SEAP) activity in non-small cell lung cancer H1299 cell at 18 uM concentration; type: functional
# [41] = test system: BJ; experiment: Compound was tested for human telomerase reverse transcriptase-SEAP (hTERT-SEAP) activity in immortalized hTERT-BJI at 18 uM concentration; type: functional
# [42] = test system: BJ; experiment: hTERT-SEAP (Human telomerase reverse transcriptase-SEAP) activity in immortalized hTERT-BJI at 18 uM concentration and level of cell viability determined in MTT assay; type: functional
# [43] = test system: BJ; experiment: pPCMV-SEAP (cytomegalovirus-SEAP) activity in immortalized hTERT-BJ1 at 1.8 uM concentration and level of cell viability determined in MTT assay; type: functional, Homo sapiens
# [44] = test system: NCI-H1299; experiment: hTERT-SEAP (Human telomerase reverse transcriptase-SEAP) activity in non-small cell lung cancer H1299 cell at 1.8 uM concentration and level of cell viability determined in MTT assay; type: functional
# [45] = test system: BJ; experiment: Compound was tested for cytomegalovirus or (pPCMV-SEAP) activity in immortalized hTERT-BJ1 at 180 uM concentration; type: functional, Homo sapiens
# [46] = test system: BJ; experiment: hTERT-SEAP (Human telomerase reverse transcriptase-SEAP) activity in immortalized hTERT-BJI at 180.0 uM concentration and level of cell viability determined in MTT assay; type: functional
# [47] = test system: NCI-H1299; experiment: hTERT-SEAP (Human telomerase reverse transcriptase-SEAP) activity in non-small cell lung cancer H1299 cell at 180.0 uM concentration and level of cell viability determined in MTT assay; type: functional
# [48] = test system: NCI-H1299; experiment: Compound was tested for human telomerase reverse transcriptase-SEAP (hTERT-SEAP) activity in non-small cell lung cancer H1299 cell at 1.8 uM concentration; type: functional
# [49] = test system: NCI-H1299; experiment: Compound was tested for human telomerase reverse transcriptase-SEAP (hTERT-SEAP) activity in non-small cell lung cancer H1299 cell at 180.0 uM concentration; type: functional
# [50] = test system: BJ; experiment: pPCMV-SEAP (cytomegalovirus-SEAP) activity in immortalized hTERT-BJ1 at 180 uM concentration and level of cell viability determined in MTT assay; type: functional, Homo sapiens
compound,measurement,setting,value
COc1ccc(CSc2cccc3c2C(=O)c2cccc(SCc4ccc(OC)cc4)c2C3=O)cc1,Relative SEAP activity,[1],96%
same,Relative viability,[2],67%
same,Relative viability,[3],98%
same,Relative SEAP activity,[4],103%
same,Relative viability,[5],52%
same,Relative SEAP activity,[6],88%
same,Relative viability,[7],116%
same,Relative viability,[8],119%
same,Relative SEAP activity,[9],142%
same,Relative SEAP activity,[10],141%
same,Relative SEAP activity,[11],100%
same,Relative SEAP activity,[12],118%
same,Relative SEAP activity,[13],92%
same,Relative SEAP activity,[14],102%
same,Relative viability,[15],42%
same,Relative viability,[16],62%
same,Relative viability,[17],89%
CC(C)(C)C(=O)Oc1cccc2c1C(=O)c1cccc(OC(=O)C(C)(C)C)c1C2=O,Relative viability,[18],103%
same,Relative viability,[19],70%
same,Relative SEAP activity,[20],147%
same,Relative SEAP activity,[21],141%
same,Relative viability,[22],104%
same,Relative viability,[23],115%
same,Relative SEAP activity,[24],141%
same,Relative SEAP activity,[25],165%
same,Relative viability,[26],93%
same,Relative viability,[27],97%
same,Relative SEAP activity,[28],78%
same,Relative SEAP activity,[29],105%
same,Relative viability,[30],100%
same,Relative SEAP activity,[31],80%
same,Relative SEAP activity,[32],114%
same,Relative viability,[33],106%
same,Relative SEAP activity,[34],102%
O=C(Oc1cccc2c1C(=O)c1cccc(OC(=O)c3ccc(Cl)cc3Cl)c1C2=O)c1ccc(Cl)cc1Cl,Relative viability,[35],105%
same,Relative SEAP activity,[36],99%
same,Relative SEAP activity,[37],111%
same,Relative SEAP activity,[38],160%
same,Relative viability,[39],103%
same,Relative SEAP activity,[40],102%
same,Relative SEAP activity,[41],150%
same,Relative viability,[42],102%
same,Relative viability,[43],105%
same,Relative viability,[44],108%
same,Relative SEAP activity,[45],121%
same,Relative viability,[46],96%
same,Relative viability,[47],77%
same,Relative SEAP activity,[48],100%
same,Relative SEAP activity,[49],96%
same,Relative viability,[50],108%
